For data set [1], the system named is cell cultures of Examples I and II. Nature of the data set: LTB4 cytotoxicity, trypan blue dye exclusion test. Type of data set: cell-based, human. The following applies: concentrations up to 30 nM. The procedure: In cell cultures described in Examples I and II, the cytotoxic effect of LTB4 was assessed by the trypan blue dye exclusion test at concentrations up to 30 nM. […] Cell viability was assessed by the trypan blue exclusion test; values (from 1 experiment representative of 3) represent the mean cell viability in cell cultures (n=24).

A further data set relates to HSV-1. Briefly: Synthesis of HSV-1 particles in Vero cells. Conditions: concentration not stated (summary).
The test system of data set [2] is influenza virus (strain A/Pr/8/34). Nature of the data set: Influenza infection in lungs of mice. Type of data set: in vivo. Conditions: LTB4 1, 10 and 100 ng/dose intranasal, days 1 to 5, day 6. The protocol:
BALB/c mice (6-8 week old) were infected (n=6/group) by delivering 10 PFU of influenza virus (strain A/Pr/8/34) in the nasal cavity. On days 1 to 5 post-infection, mice were treated intranasally with a placebo or with varying doses of LTB4 (1, 10 and 100 ng/dose). On the 6th day post-infection, all mice were sacrificed and influenza viral loads in lungs were determined using the MDCK cell line.

The next data set has as its system HIV-1IIIB. Nature of the data set: Reverse transcriptase activity in HIV-1-infected PBMC. It counts as cell-based, human. The following applies: LTB4 in culture media (100 nM elsewhere in the source), two weeks of culture. The procedure:
PBMC were resuspended at a density of 10^6 cells/ml in culture medium (RPMI-1640 supplemented with 10% FBS), and cultured in the presence of 3 μg/ml PHA-P (Sigma, St.Louis, Mo.) and 30 U/ml of recombinant human IL-2 for 2 to 3 days at 37° C. under a 5% CO2 atmosphere. PHA-stimulated PBMC were resuspended at 1×10^6 cells/ml and were infected with HIV-1IIIB (various multiplicity of infection: number of infectious virus particles/target cell) in the absence or the presence of increasing concentrations of LTB4 (0, 30, 100, and 200 nM). The culture media were changed twice a week and appropriate amounts of LTB4 were added at every medium change. […] Virus replication was monitored either by reverse transcriptase or p24 assays. […]
Enzymatic activity was measured with 50 μl of cell-free supernatant to which 10 μl of a solution A (5 mM dithiothreitol, 50 mM KCl, 0.05% Triton X-100) and 40 μl of a solution B (5 mM MgCl2, […], 0.04 mg of poly(rA)-oligo(dT)12-18, […] [^3H]TTP (40 to 70 Ci/mmol) had been added. After incubation for 1 hour at 37° C., samples were precipitated with one volume of a solution containing 0.15% pyrophosphate and 1.66% trichloroacetic acid prior filtration onto glass fiber filters by using a cell harvester system. The filters were dried and radioactivity was measured in a liquid scintillation counter (1205/1204 BS Beta-plate; Wallac Oy, Turku, Finland). […]

The test system of the next data set is HIV (93US151). Nature of the data set: HIV infection in vivo, SCID mice reconstituted with human PBMC.
The subject of the next data set is EBV. Briefly: Synthesis of EBV particles in B95-8 cells. Conditions: for inhibition of production of EBV particles (decrease of EBNA antigen positive cells): 14 days.
Another data set has as its system HIV-1. Briefly: Synthesis of HIV-1 particles in J1.1 cells (end-point titration, TCID50). The following applies: for percentage of inhibition of HIV-1 particles synthesis: 48 hours. It counts as cell-based. The protocol: This set of experiments was carried out with the J1.1 cell line, a latently […] cell line derived from the parental cell line Jurkat E6.1. J1.1 cells were resuspended at a density of 10^6 cells/ml in culture medium (RPMI-1640 supplemented with 10% FBS) and were stimulated with the phorbol ester PM-A (20 ng/ml) in the absence or the presence of increasing concentrations of LTB4 (0,30, 100 nM). LTB4 was again added (to the same concentrations) 24 hours after the initiation of the cultures.
End-point titration was carried out in flat-bottom microtiter wells using four parallel series of ten-fold dilutions of cell-free supernatants. After 5 to 7 days of incubation with MT-4 cells, cell-free supernatants were harvested and tested for the major viral core p24 protein by a commercially available enzymatic assay. The TCID50 was calculated by the method of Reed and Muench.

For another data set, the system named is EBV, strain B95-8. Briefly: EBV-induced clump formation in peripheral blood mononuclear cells. Conditions: EBV-infected PBMC, ten to twelve days of culture. It counts as cell-based, human. The protocol:
Peripheral blood mononuclear cells (PBMC) were obtained from healthy donors after dextran sedimentation and centrifugation on Ficoll-Paque™ gradients as previously described by Boyum A. (Scand. J. Immunol., 1976, 5(5):9). […] When indicated, EBV-infected PBMC were simultaneously treated (single addition) with different concentrations of LTB4, i.e. 0.3, 3.0 and 30 nM, respectively. […] Cells were cultured in microplates and the clumps were counted in each well. […] NS: nonstimulated cells.

Data set [3] deals with murine CMV (Smith strain). Briefly: CMV viral load in infected mice (plaque assay).
Procedure: Six week old BALB/c mice were infected by intravenous injection with 10^4 plaque forming units (PFU) of murine CMV (Smith strain). Mice were divided into two groups: the first group received a placebo while the second group was treated with 25 ng of LTB4, administered intravenously once a day starting on the day of infection. After 12 days of treatment, mice were sacrificed and the lungs and salivary glands harvested. The organs were homogenized, in 0.5 ml of culture medium, to liberate intracellular viral particles. After centrifugation, the cell free supernatants were tested for the presence of CMV particles by standard plaque assay technique. Briefly, serially diluted supernatants were added to a monolayer of mouse embryonic fibroblast cells (highly susceptible to CMV infection) for 1 hour at 37° C. after which the nonadsorbed virus were removed and the monolayer overlaid with 1.5% methylcellulose. After a 5-day incubation, the monolayers were fixed with formaldehyde and stained with violet crystal. The number of plaques, which represents areas of infection equivalent to one viral particle, were counted and the CMV titers in the lungs and salivary glands determined.
The mark [4] stands for this setting: 25 ng LTB4 i.v. once a day, 12 days.

Several values for one entry are separate records, joined by “and”; a condition that tells them apart may be missing. Equal entries are not always repeated. Entries after “also recorded” stand apart in the source; their conditions may differ. Where only a bound is given, the exact number is not on record here.

For `CCCCC/C=C\C[C@@H](O)/C=C/C=C/C=C\[C@@H](O)CCCC(=O)O` [LTB4, 5S,12R-dihydroxy-6,8,10,14 (Z,E,E,Z)-eicosatetraenoic acid], in data set [1], the “cytotoxic effect / cell viability” value is on record as “no direct cytotoxic effect”. For the same molecule, in the data set on HSV-1, the “inhibition of formation of new HSV-1 particles” value was 75%. Also, the “influenza titers in the lungs versus placebo” value in data set [2] is “significantly decreased; also recorded: reduced”. The “reduction of reverse transcriptase (viral) activity” value with HIV-1IIIB is listed as “more than 70%”. Further, in the data set with HIV (93US151) (LTB4 1, 10 or 100 ng/mouse i.p. once a day, day 14 P.I.), the “percentage of CD4+ T cell survival versus placebo” value is listed as “significantly increased”. In addition, the “HIV plasma viral loads versus placebo” value in the data set on HIV (93US151) (LTB4 i.p. once a day, days 7 and 14 P.I.) is given as “reduced”. Moreover, the “inhibition of production of EBV particles (decrease of EBNA antigen positive cells)” value in the data set with EBV (30 nM LTB4, B95-8 cells) came to 70%; with EBV (100 nM LTB4, B95-8 cells) it was 85%. For the same molecule, the “inhibition of formation of new EBV particles” value in the data set on EBV (B95-8 cells, concentration not stated (summary)) was more than 80%. Moreover, the “percentage of inhibition of HIV-1 particles synthesis” value is 49% and 50% and 56% in the data set on HIV-1 (LTB4 30 nM); 55% and 61% and 79% in the data set with HIV-1 (LTB4 100 nM). Moreover, in the data set on HIV-1 (concentration not stated (summary)), the “inhibition of formation of new HIV-1 particles” value is on record as more than 55%. Besides, the formation of clumps result in the data set with EBV, strain B95-8 was “markedly affected the formation of clumps”. In addition, the “reduction in the CMV viral load in the lungs versus placebo” value in [3] (setting [4]) is listed as 77%. Further, in [3] (setting [4]), the “reduction in the CMV viral load in the salivary glands versus placebo” value is 70%. In addition, in [3] (infected mice), the “CMV viral load versus placebo” value is “reduced”.

Source of the values: patent publication US7473708B2, “Agents with leukotriene B4-like antiviral (enveloped RNA) activities” (priority 1996, dated 2009).
